Converted amounts (≈) assume the structure as drawn.
Legend:
[1] = Antimetastasis activity against human MCF7/6 cells xenografted in Swiss nu/nu mouse assessed as increase of survival time at 160 mg/kg, ip administered thrice a week relative to control; type: functional
[2] = test system: MDA-MB-231; assay: Cytotoxicity against human MDA-MB-231 cells expressing GFP assessed as reduction of cellular protein content at 0.01 to 100 umol/L after 6 days by SRB assay; type: cell-based; settings: mda-mb-231, 144 h
[3] = Cytotoxicity against human BLM cells assessed as reduction of mitochondrial activity at 0.01 to 1 umol/L after 24 hrs by MTT assay; type: cell-based
[4] = test system: MCF10; assay: Cytotoxicity against human MCF10 cells assessed as reduction of cellular protein content at 0.01 to 100 umol/L after 6 days by SRB assay; type: cell-based; settings: mcf10, 144 h
[5] = Permeability across basolateral to apical side of human Caco2 cells assessed as compound recovery at 10 umol/L at pH 7.4; type: ADME, cell-based; settings: Caco-2, pH 7.4, read-out: Drug recovery
[6] = Cytotoxicity against human MCF7/6 cells assessed as reduction of mitochondrial activity at 0.01 to 100 umol/L after 6 days by MTT assay; type: cell-based; settings: mcf7/6, 144 h
[7] = Cytotoxicity against human BLM cells assessed as reduction of mitochondrial activity at > 10 umol/L after 24 hrs by MTT assay; type: cell-based
[8] = test system: SK-OV-3; assay: Antiinvasive activity in human in SKOV3 cells assessed as reduction of amount of cells present on filter at 1 umol/L after 24 hrs by matrigel invasion assay (reference value: 100%); type: functional; set-up: scale not given: the % may be the effect or the level left
[9] = Antiinvasive activity in human in BLM cells assessed as reduction of amount of cells present on filter at 100 umol/L after 24 hrs by matrigel invasion assay (reference value: 100%); type: functional; set-up: scale not given: the % may be the effect or the level left
[10] = target: hERG (Homo sapiens, UniProt Q12809); assay: Inhibition of human ERG assessed as reduction of tail current at 0.1 umol/L
hERG, sequence (Q12809 whole entry): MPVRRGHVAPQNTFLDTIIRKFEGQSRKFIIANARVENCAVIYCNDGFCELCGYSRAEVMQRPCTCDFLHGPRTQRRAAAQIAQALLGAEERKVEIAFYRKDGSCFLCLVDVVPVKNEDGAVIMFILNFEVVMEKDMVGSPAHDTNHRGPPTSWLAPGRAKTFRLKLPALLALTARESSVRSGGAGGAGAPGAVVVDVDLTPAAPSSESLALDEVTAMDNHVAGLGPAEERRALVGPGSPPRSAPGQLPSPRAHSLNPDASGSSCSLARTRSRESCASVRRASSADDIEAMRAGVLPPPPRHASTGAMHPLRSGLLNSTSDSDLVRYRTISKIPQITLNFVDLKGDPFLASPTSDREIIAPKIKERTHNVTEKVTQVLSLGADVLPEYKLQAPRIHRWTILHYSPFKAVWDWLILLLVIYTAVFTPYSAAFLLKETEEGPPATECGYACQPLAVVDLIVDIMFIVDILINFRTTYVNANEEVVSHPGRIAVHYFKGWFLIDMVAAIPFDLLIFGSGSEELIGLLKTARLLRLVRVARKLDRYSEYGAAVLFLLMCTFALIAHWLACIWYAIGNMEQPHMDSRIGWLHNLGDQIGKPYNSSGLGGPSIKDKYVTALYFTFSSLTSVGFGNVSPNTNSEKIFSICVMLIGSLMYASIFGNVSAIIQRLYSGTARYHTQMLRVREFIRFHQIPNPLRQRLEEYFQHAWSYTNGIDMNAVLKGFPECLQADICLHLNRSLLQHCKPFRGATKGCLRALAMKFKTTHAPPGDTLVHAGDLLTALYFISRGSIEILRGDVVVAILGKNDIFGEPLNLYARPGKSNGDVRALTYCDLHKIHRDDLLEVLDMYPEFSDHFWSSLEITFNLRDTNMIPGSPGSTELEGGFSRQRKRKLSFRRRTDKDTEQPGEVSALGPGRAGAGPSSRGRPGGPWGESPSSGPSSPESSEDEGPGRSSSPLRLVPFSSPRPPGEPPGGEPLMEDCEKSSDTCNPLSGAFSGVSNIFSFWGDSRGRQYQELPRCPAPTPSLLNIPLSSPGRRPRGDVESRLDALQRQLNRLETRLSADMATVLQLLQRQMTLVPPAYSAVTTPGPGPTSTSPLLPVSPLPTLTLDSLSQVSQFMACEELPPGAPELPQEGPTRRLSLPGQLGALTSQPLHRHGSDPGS

[11] = test system: Mus musculus; assay: Toxicity in Swiss nu/nu mouse assessed as hematological anomalies by measuring ALT level at 160 mg/kg, ip administered three times a week for two-week period measured on day 15 (reference value: 29.6 +/- 5.6 IU/L); type: organism-based; settings: in vivo
[12] = Permeability across basolateral to apical side of human Caco2 cells at 10 umol/L at pH 7.4; type: ADME, cell-based; settings: Caco-2, pH 7.4, read-out: permeability
[13] = Octanol-phosphate buffer partition coefficient, log D of the compound at 100 umol/L at pH 7.4; type: physicochemical
[14] = target: CYP3A4 (Homo sapiens, UniProt P08684); assay: Inhibition of CYP3A4 (unknown origin) at 10 umol/L; type: ADME
CYP3A4, sequence (P08684 whole entry): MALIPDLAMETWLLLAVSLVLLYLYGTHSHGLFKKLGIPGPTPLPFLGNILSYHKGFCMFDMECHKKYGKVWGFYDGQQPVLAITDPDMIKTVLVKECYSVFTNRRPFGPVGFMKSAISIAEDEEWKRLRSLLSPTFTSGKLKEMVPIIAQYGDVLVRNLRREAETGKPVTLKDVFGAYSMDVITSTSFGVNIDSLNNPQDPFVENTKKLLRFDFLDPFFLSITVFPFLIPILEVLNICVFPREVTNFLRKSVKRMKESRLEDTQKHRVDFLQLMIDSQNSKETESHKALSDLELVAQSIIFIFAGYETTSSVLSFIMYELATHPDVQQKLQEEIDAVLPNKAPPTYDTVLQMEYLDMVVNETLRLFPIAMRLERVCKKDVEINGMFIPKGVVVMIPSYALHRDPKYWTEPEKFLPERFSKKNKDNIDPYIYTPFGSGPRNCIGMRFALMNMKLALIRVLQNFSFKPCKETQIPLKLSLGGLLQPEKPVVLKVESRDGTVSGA

[15] = Toxicity in human HepG2 cells assessed as cell viability at 10 umol/L; type: cell-based; settings: read-out: Activity
[16] = Permeability across apical to basolateral side of human Caco2 cells at 10 umol/L at pH 7.4; type: ADME, cell-based; settings: Caco-2, pH 7.4, read-out: permeability
[17] = test system: Mus musculus; assay: Toxicity in Swiss nu/nu mouse assessed as hematological anomalies by measuring AST level at 16 mg/kg, ip administered three times a week for two-week period measured on day 15 (reference value: 254.2 +/- 144.6 IU/L); type: organism-based; settings: in vivo
[18] = Half life of the compound in simulated intestinal fluid at 1 umol/L; type: ADME
[19] = test system: Mus musculus; assay: Toxicity in Swiss nu/nu mouse assessed as histological anomalies in spleen at 1.6 to 160 mg/kg, ip administered three times a week for two-week period measured on day 15; type: organism-based; settings: in vivo
[20] = target: Tubulin (Sus scrofa) (UniProt P02554+P02550); assay: Inhibition of porcine brain tubulin polymerization assessed as microtubule assembly at 1 umol/L after 15 mins by DAPI staining
Tubulin (Sus scrofa), sequence (P02550 whole entry, looked up): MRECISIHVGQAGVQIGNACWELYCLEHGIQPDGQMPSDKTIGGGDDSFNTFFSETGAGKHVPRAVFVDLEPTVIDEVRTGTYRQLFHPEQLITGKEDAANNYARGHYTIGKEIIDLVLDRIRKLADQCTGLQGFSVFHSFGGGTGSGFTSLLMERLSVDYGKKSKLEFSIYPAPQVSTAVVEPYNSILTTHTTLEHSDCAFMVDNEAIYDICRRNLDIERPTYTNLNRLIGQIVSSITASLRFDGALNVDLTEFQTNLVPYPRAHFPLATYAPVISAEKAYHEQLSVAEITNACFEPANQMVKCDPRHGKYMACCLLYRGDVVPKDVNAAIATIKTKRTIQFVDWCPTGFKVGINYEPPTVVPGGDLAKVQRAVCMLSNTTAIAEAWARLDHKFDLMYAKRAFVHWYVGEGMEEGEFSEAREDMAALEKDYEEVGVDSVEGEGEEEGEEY
Tubulin (Sus scrofa), sequence (P02554 whole entry, looked up): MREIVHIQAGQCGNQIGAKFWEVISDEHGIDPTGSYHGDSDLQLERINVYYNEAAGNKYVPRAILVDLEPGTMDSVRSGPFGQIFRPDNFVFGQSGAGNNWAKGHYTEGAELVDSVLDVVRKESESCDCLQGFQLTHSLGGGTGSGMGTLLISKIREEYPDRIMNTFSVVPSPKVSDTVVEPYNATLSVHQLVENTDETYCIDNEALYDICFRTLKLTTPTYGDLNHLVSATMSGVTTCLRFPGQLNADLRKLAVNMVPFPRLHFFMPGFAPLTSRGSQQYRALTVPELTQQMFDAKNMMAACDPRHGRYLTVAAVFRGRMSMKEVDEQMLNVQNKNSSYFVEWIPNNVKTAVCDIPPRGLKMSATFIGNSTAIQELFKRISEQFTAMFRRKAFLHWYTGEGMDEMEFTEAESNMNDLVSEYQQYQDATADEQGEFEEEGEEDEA

[21] = Aqueous solubility of the compound in simulated intestinal fluid at 200 umol/L; type: physicochemical
[22] = Half life of the compound in simulated gastric fluid at 1 umol/L; type: ADME
[23] = test system: Mus musculus; assay: Toxicity in Swiss nu/nu mouse assessed as macroscopic anomalies at 1.6 to 160 mg/kg, ip administered three times a week for two-week period measured on day 15; type: organism-based; settings: in vivo
[24] = Toxicity in human HepG2 cells assessed as cell viability at 1 umol/L; type: cell-based; settings: read-out: Activity
[25] = test system: Mus musculus; assay: Toxicity in Swiss nu/nu mouse assessed as hematological anomalies by measuring ALT level at 1.6 mg/kg, ip administered three times a week for two-week period measured on day 15 (reference value: 29.6 +/- 5.6 IU/L); type: organism-based; settings: in vivo
[26] = target: T1, CYP1A2 (Homo sapiens, UniProt P05177); assay: Inhibition of CYP1A2 (unknown origin) at 10 umol/L; type: ADME
T1 sequence (P05177 whole entry): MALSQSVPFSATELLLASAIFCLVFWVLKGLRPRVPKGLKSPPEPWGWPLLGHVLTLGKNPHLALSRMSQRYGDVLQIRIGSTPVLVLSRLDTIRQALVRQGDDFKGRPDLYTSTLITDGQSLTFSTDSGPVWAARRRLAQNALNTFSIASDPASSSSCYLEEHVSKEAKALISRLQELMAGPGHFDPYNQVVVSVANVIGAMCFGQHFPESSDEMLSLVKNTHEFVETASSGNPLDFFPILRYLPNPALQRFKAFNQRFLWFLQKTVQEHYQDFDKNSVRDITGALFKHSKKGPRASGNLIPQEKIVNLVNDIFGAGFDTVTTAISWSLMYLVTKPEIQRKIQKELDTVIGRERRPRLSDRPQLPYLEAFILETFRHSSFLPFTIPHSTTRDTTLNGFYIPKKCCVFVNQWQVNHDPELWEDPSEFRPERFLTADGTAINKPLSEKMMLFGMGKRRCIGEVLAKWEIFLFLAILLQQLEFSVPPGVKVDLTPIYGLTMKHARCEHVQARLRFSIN

[27] = test system: SK-OV-3; assay: Antiinvasive activity in human in SKOV3 cells assessed as reduction of amount of cells present on filter at 10 umol/L after 24 hrs by matrigel invasion assay (reference value: 100%); type: functional; set-up: scale not given: the % may be the effect or the level left
[28] = Aqueous solubility of the compound in simulated gastric fluid at 200 umol/L; type: physicochemical
[29] = target: CYP2D6 (Homo sapiens, UniProt P10635); assay: Inhibition of CYP2D6 (unknown origin) at 10 umol/L; type: ADME
CYP2D6, sequence (P10635 whole entry): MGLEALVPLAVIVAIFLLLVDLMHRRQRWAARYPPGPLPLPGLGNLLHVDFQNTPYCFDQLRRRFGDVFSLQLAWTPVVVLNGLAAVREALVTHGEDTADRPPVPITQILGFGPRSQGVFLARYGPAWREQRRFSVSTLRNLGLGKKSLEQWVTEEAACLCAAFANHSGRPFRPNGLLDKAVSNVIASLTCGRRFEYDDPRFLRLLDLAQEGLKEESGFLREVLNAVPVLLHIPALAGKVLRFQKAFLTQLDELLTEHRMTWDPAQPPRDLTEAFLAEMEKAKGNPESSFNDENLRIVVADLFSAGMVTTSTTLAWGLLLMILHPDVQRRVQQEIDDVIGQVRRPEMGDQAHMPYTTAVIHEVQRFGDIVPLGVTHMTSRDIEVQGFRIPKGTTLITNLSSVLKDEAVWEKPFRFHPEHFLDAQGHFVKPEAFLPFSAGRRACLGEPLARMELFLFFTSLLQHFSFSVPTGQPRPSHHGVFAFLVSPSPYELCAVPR

[30] = Antiinvasive activity in human in BLM cells assessed as reduction of amount of cells present on filter at 1 umol/L after 24 hrs by matrigel invasion assay (reference value: 100%); type: functional; set-up: scale not given: the % may be the effect or the level left
[31] = Permeability across apical to basolateral side of human Caco2 cells assessed as compound recovery at 10 umol/L at pH 7.4; type: ADME, cell-based; settings: Caco-2, pH 7.4, read-out: Drug recovery
[32] = Half life in human blood at 1 umol/L; type: ADME, tissue-based
[33] = test system: MDA-MB-231; assay: Cytotoxicity against human MDA-MB-231 cells expressing GFP-Luc assessed as reduction of cellular protein content at 0.01 to 100 umol/L after 6 days by SRB assay; type: cell-based; settings: mda-mb-231, 144 h
[34] = Protein binding in human plasma at 10 umol/L; type: ADME, cell-free; settings: read-out: PPB (converted)
[35] = target: Vascular endothelial growth factor receptor 2 (Homo sapiens) (UniProt P35968); assay: Inhibition of human KDR using and Ulight-CAGAGAIETDKEYYTVKD as substrate at 0.1 umol/L after 1 hr by FRET assay
Vascular endothelial growth factor receptor 2 (Homo sapiens), sequence (P35968 whole entry): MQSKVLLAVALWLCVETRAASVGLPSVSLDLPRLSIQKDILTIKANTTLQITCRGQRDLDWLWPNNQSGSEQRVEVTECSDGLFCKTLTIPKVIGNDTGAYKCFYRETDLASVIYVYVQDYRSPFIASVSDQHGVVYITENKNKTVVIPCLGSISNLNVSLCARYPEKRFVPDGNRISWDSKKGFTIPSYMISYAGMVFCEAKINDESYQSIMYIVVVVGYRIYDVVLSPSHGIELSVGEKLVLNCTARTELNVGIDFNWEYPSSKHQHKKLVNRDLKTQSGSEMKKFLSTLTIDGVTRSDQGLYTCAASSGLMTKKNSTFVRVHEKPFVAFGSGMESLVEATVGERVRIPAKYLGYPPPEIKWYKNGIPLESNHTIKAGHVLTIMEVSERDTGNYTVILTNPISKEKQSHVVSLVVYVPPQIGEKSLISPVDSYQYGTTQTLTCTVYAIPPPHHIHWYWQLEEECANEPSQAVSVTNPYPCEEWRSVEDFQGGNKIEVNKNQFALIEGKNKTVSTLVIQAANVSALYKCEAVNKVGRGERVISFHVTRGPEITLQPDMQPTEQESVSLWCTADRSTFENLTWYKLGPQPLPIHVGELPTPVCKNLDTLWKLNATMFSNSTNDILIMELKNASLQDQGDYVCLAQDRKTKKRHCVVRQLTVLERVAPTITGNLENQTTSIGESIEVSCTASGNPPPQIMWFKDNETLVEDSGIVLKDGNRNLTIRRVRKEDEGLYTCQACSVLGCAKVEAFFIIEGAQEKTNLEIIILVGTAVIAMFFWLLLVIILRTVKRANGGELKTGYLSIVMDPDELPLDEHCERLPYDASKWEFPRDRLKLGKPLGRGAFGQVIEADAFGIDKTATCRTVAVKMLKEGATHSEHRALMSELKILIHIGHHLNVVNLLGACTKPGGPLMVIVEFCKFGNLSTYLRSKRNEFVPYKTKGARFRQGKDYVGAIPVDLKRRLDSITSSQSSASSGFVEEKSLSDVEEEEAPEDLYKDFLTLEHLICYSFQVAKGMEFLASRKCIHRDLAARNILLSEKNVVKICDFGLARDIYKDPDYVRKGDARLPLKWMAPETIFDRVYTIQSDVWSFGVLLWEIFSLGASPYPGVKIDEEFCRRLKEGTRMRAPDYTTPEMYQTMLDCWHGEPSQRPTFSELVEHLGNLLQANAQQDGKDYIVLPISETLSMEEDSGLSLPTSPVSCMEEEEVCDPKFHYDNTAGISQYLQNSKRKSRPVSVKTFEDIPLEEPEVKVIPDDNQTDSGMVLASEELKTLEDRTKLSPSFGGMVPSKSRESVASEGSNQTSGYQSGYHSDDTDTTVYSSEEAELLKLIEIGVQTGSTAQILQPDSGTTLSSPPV

## COc1cc(C(=O)/C=C/c2ccc(F)cc2)cc(OC)c1OC
[1]
  Survival: 34 days
[2]
  Activity: Non-toxic
[3]
  Activity: Non-toxic
[4]
  Activity: Non-toxic
[5]
  recovery at 10 µM: 66%
[6]
  Activity: Non-toxic
[7]
  Activity: Toxic
[8]
  Activity: 18%
[9]
  Activity: 2%
[10]
  inhibition at 0.1 µM: 3.7%
[11]
  Activity: 33.2 IU/L
[12]
  Papp B→A at 10 µM: 4.9 ×10⁻⁶ cm/s
[13]
  logD at 100 µM: 3.85
[14]
  inhibition at 10 µM: 27.2%
[15]
  viability at 10 µM: 44.3%
[16]
  Papp A→B at 10 µM: 10.4 ×10⁻⁶ cm/s
[17]
  Activity: 167.5 IU/L
[18]
  half-life at 1 µM: > 240 min
[19]
  Activity: Non-toxic
[20]
  inhibition: -0.8%
[21]
  solubility at 200 µM: 7.9 µM (≈ 2.5 µg/mL)
[22]
  half-life at 1 µM: > 60 min
[23]
  Activity: Non-toxic
[24]
  viability at 1 µM: 93.8%
[25]
  Activity: 30.5 IU/L
[26]
  inhibition at 10 µM: 35.7%
[27]
  Activity: 12%
[28]
  solubility at 200 µM: 9.1 µM (≈ 2.88 µg/mL)
[29]
  inhibition at 10 µM: 18.9%
[30]
  Activity: 33%
[31]
  recovery at 10 µM: 17%
[32]
  half-life at 1 µM: 10 min
[33]
  Activity: Non-toxic
[34]
  fraction unbound at 10 µM: 0.01
[35]
  inhibition: -3.5%
